Measurements reported in the NIST ThermoML archive (doi:10.1021/je400539h).

Test: xn = mol fraction of the nth substance listed
Conditions: 101 kPa, Liquid

CCCCCCOC(C)=O [hexyl ethanoate] + COc1ccccc1
Conditions | mass density [kg/m3] | speed of sound [m/s] | viscosity [mPa·s]
298.15 K, x1 = 0.0698 | 979.8 | 1376 | 1.022
298.15 K, x1 = 0.1417 | 969.7 | 1360 | 1.031
298.15 K, x1 = 0.221 | 959 | 1344 | 1.038
298.15 K, x1 = 0.3061 | 947.7 | 1328 | 1.047
298.15 K, x1 = 0.398 | 935.8 | 1312 | 1.054
298.15 K, x1 = 0.4979 | 923.4 | 1300 | 1.058
298.15 K, x1 = 0.606 | 910.5 | 1284 | 1.061
298.15 K, x1 = 0.7254 | 896.9 | 1268 | 1.065
298.15 K, x1 = 0.8556 | 882.9 | 1252 | 1.07
298.15 K, x1 = 1 | 868.3 | 1236 | 1.071
303.15 K, x1 = 0.0698 | 975 | 1360 | 0.932
303.15 K, x1 = 0.1417 | 964.7 | 1340 | 0.94
303.15 K, x1 = 0.221 | 953.8 | 1324 | 0.95
303.15 K, x1 = 0.3061 | 942.6 | 1304 | 0.959
303.15 K, x1 = 0.398 | 930.8 | 1288 | 0.967
303.15 K, x1 = 0.4979 | 918.4 | 1272 | 0.972
303.15 K, x1 = 0.606 | 905.5 | 1260 | 0.975
303.15 K, x1 = 0.7254 | 891.9 | 1244 | 0.98
303.15 K, x1 = 0.8556 | 878 | 1232 | 0.983
303.15 K, x1 = 1 | 863.9 | 1216 | 0.982
308.15 K, x1 = 0.0698 | 968.1 | 1340 | 0.86
308.15 K, x1 = 0.1417 | 957.8 | 1320 | 0.872
308.15 K, x1 = 0.221 | 947.1 | 1296 | 0.878
308.15 K, x1 = 0.3061 | 936.2 | 1280 | 0.886
308.15 K, x1 = 0.398 | 925 | 1264 | 0.894
308.15 K, x1 = 0.4979 | 913 | 1248 | 0.898
308.15 K, x1 = 0.606 | 900.3 | 1236 | 0.901
308.15 K, x1 = 0.7254 | 886.8 | 1224 | 0.903
308.15 K, x1 = 0.8556 | 873.1 | 1208 | 0.902
308.15 K, x1 = 1 | 859.8 | 1196 | 0.898
313.15 K, x1 = 0.0698 | 961.6 | 1320 | 0.779
313.15 K, x1 = 0.1417 | 951.2 | 1296 | 0.791
313.15 K, x1 = 0.221 | 940.5 | 1272 | 0.802
313.15 K, x1 = 0.3061 | 929.8 | 1252 | 0.811
313.15 K, x1 = 0.398 | 918.6 | 1236 | 0.823
313.15 K, x1 = 0.4979 | 906.8 | 1220 | 0.828
313.15 K, x1 = 0.606 | 894.4 | 1204 | 0.833
313.15 K, x1 = 0.7254 | 881.2 | 1192 | 0.838
313.15 K, x1 = 0.8556 | 867.8 | 1184 | 0.84
313.15 K, x1 = 1 | 855 | 1176 | 0.836

CCCCCCOC(C)=O [hexyl ethanoate] + C=COCCCC
x1 = 1
Conditions | mass density [kg/m3] | speed of sound [m/s] | viscosity [mPa·s]
298.15 K | 868.3 | 1236 | 1.071
303.15 K | 863.9 | 1216 | 0.982
308.15 K | 859.8 | 1196 | 0.899
313.15 K | 855 | 1176 | 0.836

C1CCOC1 [tetrahydrofuran] + CCCCCCOC(C)=O
x2 = 0
Conditions | mass density [kg/m3] | speed of sound [m/s] | viscosity [mPa·s]
298.15 K | 881.5 | 1268 | 0.45
303.15 K | 878.7 | 1248 | 0.439
308.15 K | 873 | 1228 | 0.429
313.15 K | 866.9 | 1212 | 0.404

C1COCCO1 [1,4-dioxane] + CCCCCCOC(C)=O
x2 = 0
Conditions | mass density [kg/m3] | speed of sound [m/s] | viscosity [mPa·s]
298.15 K | 1028.2 | 1328 | 1.159
303.15 K | 1022.7 | 1320 | 1.087
308.15 K | 1017.4 | 1312 | 1.013
313.15 K | 1011.1 | 1304 | 0.934
